Source: patent US20100022798A1, “Ibuprofen amine salts and synthesis thereof” (NATIONAL CENTRAL UNIVERSITY, priority 2008, published 2010)

Experiment: pH stability of the ibuprofen amine salt
Format: physicochemical
Conditions: pH range in which the salt is stable, after tested

stability: stable between pH 4 and 9
Compound: CC(C)Cc1ccc(C(C)C(=O)O)cc1.NC(CO)(CO)CO (stereo not shown) [ibuprofen amine salt]
